According to PubChem BioAssay AID1963958 (Molecular Pharmacology Branch, DTP, NCI, 2024):

System: MDA-MB-231 multicell spheroids, viability
Test: Anticancer human tumor MDA-MB-231 cell line growth inhibition [PI3K];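 further: spheroids exposed to agents for seven days before reading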;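 on viability, T/C: percent of vehicle control luminescence with DMSO treated spheroids as 100%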
Details: for IC50: curve of first compound; for viability, T/C: stronger effect = lower value
In short: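 Tumor cells grown as multi-cell spheroids with HUVEC endothelial cells and MSC fibroblast-like stroma were treated with targeted agents combined with inavolisib, alpelisib, duvelisib or copanlisib. Doses fell in half-log steps from near clinical Cmax, else from 10 microM. Viability was measured.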

[1] = second compound 0.0316 µM, first compound 0.0316 µM
[2] = second compound 0.0316 µM, first compound 0.1 µM
[3] = second compound 0.0316 µM, first compound 0.316 µM
[4] = second compound 0.0316 µM, first compound 1 µM
[5] = second compound 0.0316 µM, first compound 3.16 µM
[6] = second compound 0.0316 µM, first compound 10 µM
[7] = second compound 0.1 µM, first compound 0.0316 µM
[8] = second compound 0.1 µM, first compound 0.1 µM
[9] = second compound 0.1 µM, first compound 0.316 µM
[10] = second compound 0.1 µM, first compound 1 µM
[11] = second compound 0.1 µM, first compound 3.16 µM
[12] = second compound 0.1 µM, first compound 10 µM
[13] = second compound 0.316 µM, first compound 0.0316 µM
[14] = second compound 0.316 µM, first compound 0.1 µM
[15] = second compound 0.316 µM, first compound 0.316 µM
[16] = second compound 0.316 µM, first compound 1 µM
[17] = second compound 0.316 µM, first compound 3.16 µM
[18] = second compound 0.316 µM, first compound 10 µM
[19] = second compound 1 µM, first compound 0.0316 µM
[20] = second compound 1 µM, first compound 0.1 µM
[21] = second compound 1 µM, first compound 0.316 µM
[22] = second compound 1 µM, first compound 1 µM
[23] = second compound 1 µM, first compound 3.16 µM
[24] = second compound 1 µM, first compound 10 µM
[25] = second compound 3.16 µM, first compound 0.0316 µM
[26] = second compound 3.16 µM, first compound 0.1 µM
[27] = second compound 3.16 µM, first compound 0.316 µM
[28] = second compound 3.16 µM, first compound 1 µM
[29] = second compound 3.16 µM, first compound 3.16 µM
[30] = second compound 3.16 µM, first compound 10 µM
[31] = second compound 10 µM, first compound 0.0316 µM
[32] = second compound 10 µM, first compound 0.1 µM
[33] = second compound 10 µM, first compound 0.316 µM
[34] = second compound 10 µM, first compound 1 µM
[35] = second compound 10 µM, first compound 3.16 µM
[36] = second compound 10 µM, first compound 10 µM

Structure (SMILES): C#Cc1c(F)ccc2cc(O)cc(-c3ncc4c(N5CC6CCC(C5)N6)nc(OCC56CCCN5CC(F)C6)nc4c3F)c12 (stereo not drawn) + CC(Nc1ncnc2nc[nH]c12)c1cc2cccc(Cl)c2c(=O)n1-c1ccccc1
- IC50 (second compound 0.0316 µM): > 10000 nM
- IC50 (second compound 0.1 µM): > 10000 nM
- IC50 (second compound 0.316 µM): > 10000 nM
- IC50 (second compound 1 µM): 6630 nM
- IC50 (second compound 3.16 µM): 1940 nM
- IC50 (second compound 10 µM): 38.7 nM
- viability, T/C [1]: 109%
- viability, T/C [2]: 96.2%
- viability, T/C [3]: 103%
- viability, T/C [4]: 94.6%
- viability, T/C [5]: 89.9%
- viability, T/C [6]: 61.1%
- viability, T/C [7]: 101%
- viability, T/C [8]: 99.1%
- viability, T/C [9]: 90.6%
- viability, T/C [10]: 88.3%
- viability, T/C [11]: 79.5%
- viability, T/C [12]: 57.7%
- viability, T/C [13]: 99.2%
- viability, T/C [14]: 89%
- viability, T/C [15]: 87.6%
- viability, T/C [16]: 86.4%
- viability, T/C [17]: 77.5%
- viability, T/C [18]: 53.2%
- viability, T/C [19]: 75.5%
- viability, T/C [20]: 83.2%
- viability, T/C [21]: 90.2%
- viability, T/C [22]: 72.8%
- viability, T/C [23]: 62.4%
- viability, T/C [24]: 43.5%
- viability, T/C [25]: 65.5%
- viability, T/C [26]: 62.8%
- viability, T/C [27]: 56.6%
- viability, T/C [28]: 56.5%
- viability, T/C [29]: 46.7%
- viability, T/C [30]: 33.1%
- viability, T/C [31]: 51.4%
- viability, T/C [32]: 46.8%
- viability, T/C [33]: 44.4%
- viability, T/C [34]: 39.8%
- viability, T/C [35]: 35.4%
- viability, T/C [36]: 26.4%

Structure (SMILES): CC1(C)CCC(Nc2ncc(C(F)(F)F)c(-c3c[nH]c4c(P(C)(C)=O)c(C#N)ccc34)n2)CN1 (stereo not drawn) + CC(Nc1ncnc2nc[nH]c12)c1cc2cccc(Cl)c2c(=O)n1-c1ccccc1
- IC50 (second compound 0.0316 µM): 31.6 nM
- IC50 (second compound 0.1 µM): 31.6 nM
- IC50 (second compound 0.316 µM): 31.6 nM
- IC50 (second compound 1 µM): < 31.6 nM
- IC50 (second compound 3.16 µM): < 31.6 nM
- IC50 (second compound 10 µM): < 31.6 nM
- viability, T/C [1]: 46.4%
- viability, T/C [2]: 37.8%
- viability, T/C [3]: 41.4%
- viability, T/C [4]: 53.5%
- viability, T/C [5]: 60.6%
- viability, T/C [6]: 5.54%
- viability, T/C [7]: 46.3%
- viability, T/C [8]: 38.5%
- viability, T/C [9]: 40.7%
- viability, T/C [10]: 51.6%
- viability, T/C [11]: 55.6%
- viability, T/C [12]: 5.27%
- viability, T/C [13]: 45.7%
- viability, T/C [14]: 39.4%
- viability, T/C [15]: 42.5%
- viability, T/C [16]: 48.6%
- viability, T/C [17]: 54.2%
- viability, T/C [18]: 6.2%
- viability, T/C [19]: 43.9%
- viability, T/C [20]: 34.7%
- viability, T/C [21]: 38.6%
- viability, T/C [22]: 49.4%
- viability, T/C [23]: 49.6%
- viability, T/C [24]: 4.82%
- viability, T/C [25]: 39.8%
- viability, T/C [26]: 37%
- viability, T/C [27]: 42.2%
- viability, T/C [28]: 44.9%
- viability, T/C [29]: 36%
- viability, T/C [30]: 4.74%
- viability, T/C [31]: 38.4%
- viability, T/C [32]: 34.6%
- viability, T/C [33]: 36%
- viability, T/C [34]: 33.2%
- viability, T/C [35]: 35.5%
- viability, T/C [36]: 3.53%

Structure (SMILES): CNC(=O)c1ccc(N2C(=S)N(c3ccc(C#N)c(C(F)(F)F)c3)C(=O)C2(C)C)cc1F + COc1c(OCCCN2CCOCC2)ccc2c3n(c(=NC(=O)c4cnc(N)nc4)nc12)CCN3
- IC50 (second compound 0.00316 µM): > 10000 nM
- IC50 (second compound 0.01 µM): > 10000 nM
- IC50 (second compound 0.0316 µM): > 10000 nM
- IC50 (second compound 0.1 µM): < 31.6 nM
- IC50 (second compound 0.316 µM): < 31.6 nM
- IC50 (second compound 1 µM): < 31.6 nM
- viability, T/C (second compound 0.00316 µM, first compound 0.0316 µM): 98.3%
- viability, T/C (second compound 0.00316 µM, first compound 0.1 µM): 96.5%
- viability, T/C (second compound 0.00316 µM, first compound 0.316 µM): 98.9%
- viability, T/C (second compound 0.00316 µM, first compound 1 µM): 97.6%
- viability, T/C (second compound 0.00316 µM, first compound 3.16 µM): 95.9%
- viability, T/C (second compound 0.00316 µM, first compound 10 µM): 81.3%
- viability, T/C (second compound 0.01 µM, first compound 0.0316 µM): 82.2%
- viability, T/C (second compound 0.01 µM, first compound 0.1 µM): 78.5%
- viability, T/C (second compound 0.01 µM, first compound 0.316 µM): 82.5%
- viability, T/C (second compound 0.01 µM, first compound 1 µM): 83.7%
- viability, T/C (second compound 0.01 µM, first compound 3.16 µM): 72.7%
- viability, T/C (second compound 0.01 µM, first compound 10 µM): 64.2%
- viability, T/C [1]: 63%
- viability, T/C [2]: 64.5%
- viability, T/C [3]: 64.8%
- viability, T/C [4]: 61.7%
- viability, T/C [5]: 59%
- viability, T/C [6]: 50.9%
- viability, T/C [7]: 50.9%
- viability, T/C [8]: 46.2%
- viability, T/C [9]: 48.9%
- viability, T/C [10]: 48.1%
- viability, T/C [11]: 46.9%
- viability, T/C [12]: 38.8%
- viability, T/C [13]: 34.5%
- viability, T/C [14]: 34.4%
- viability, T/C [15]: 34.8%
- viability, T/C [16]: 34.6%
- viability, T/C [17]: 32.6%
- viability, T/C [18]: 28.3%
- viability, T/C [19]: 25.6%
- viability, T/C [20]: 24.8%
- viability, T/C [21]: 25%
- viability, T/C [22]: 24.8%
- viability, T/C [23]: 25.1%
- viability, T/C [24]: 22.9%

Structure (SMILES): Cn1cnc2c(F)c(Nc3ccc(Br)cc3Cl)c(C(=O)NOCCO)cc21 + COc1c(OCCCN2CCOCC2)ccc2c3n(c(=NC(=O)c4cnc(N)nc4)nc12)CCN3
- IC50 (second compound 0.00316 µM): 184 nM
- IC50 (second compound 0.01 µM): 40.7 nM
- IC50 (second compound 0.0316 µM): < 9.49 nM
- IC50 (second compound 0.1 µM): < 9.49 nM
- IC50 (second compound 0.316 µM): < 9.49 nM
- IC50 (second compound 1 µM): < 9.49 nM
- viability, T/C (second compound 0.00316 µM, first compound 0.00949 µM): 60%
- viability, T/C (second compound 0.00316 µM, first compound 0.03 µM): 56.6%
- viability, T/C (second compound 0.00316 µM, first compound 0.0949 µM): 52.2%
- viability, T/C (second compound 0.00316 µM, first compound 0.3 µM): 47.5%
- viability, T/C (second compound 0.00316 µM, first compound 0.949 µM): 41.4%
- viability, T/C (second compound 0.00316 µM, first compound 3 µM): 29.7%
- viability, T/C (second compound 0.01 µM, first compound 0.00949 µM): 62.1%
- viability, T/C (second compound 0.01 µM, first compound 0.03 µM): 46.6%
- viability, T/C (second compound 0.01 µM, first compound 0.0949 µM): 42.2%
- viability, T/C (second compound 0.01 µM, first compound 0.3 µM): 40.4%
- viability, T/C (second compound 0.01 µM, first compound 0.949 µM): 41.7%
- viability, T/C (second compound 0.01 µM, first compound 3 µM): 23.6%
- viability, T/C (second compound 0.0316 µM, first compound 0.00949 µM): 45%
- viability, T/C (second compound 0.0316 µM, first compound 0.03 µM): 43.4%
- viability, T/C (second compound 0.0316 µM, first compound 0.0949 µM): 38.9%
- viability, T/C (second compound 0.0316 µM, first compound 0.3 µM): 33.1%
- viability, T/C (second compound 0.0316 µM, first compound 0.949 µM): 28.8%
- viability, T/C (second compound 0.0316 µM, first compound 3 µM): 12.9%
- viability, T/C (second compound 0.1 µM, first compound 0.00949 µM): 33.7%
- viability, T/C (second compound 0.1 µM, first compound 0.03 µM): 30.3%
- viability, T/C (second compound 0.1 µM, first compound 0.0949 µM): 27.3%
- viability, T/C (second compound 0.1 µM, first compound 0.3 µM): 27.1%
- viability, T/C (second compound 0.1 µM, first compound 0.949 µM): 21%
- viability, T/C (second compound 0.1 µM, first compound 3 µM): 7.54%
- viability, T/C (second compound 0.316 µM, first compound 0.00949 µM): 24.3%
- viability, T/C (second compound 0.316 µM, first compound 0.03 µM): 18.7%
- viability, T/C (second compound 0.316 µM, first compound 0.0949 µM): 15.8%
- viability, T/C (second compound 0.316 µM, first compound 0.3 µM): 14.4%
- viability, T/C (second compound 0.316 µM, first compound 0.949 µM): 12.2%
- viability, T/C (second compound 0.316 µM, first compound 3 µM): 5.36%
- viability, T/C (second compound 1 µM, first compound 0.00949 µM): 17.7%
- viability, T/C (second compound 1 µM, first compound 0.03 µM): 14.2%
- viability, T/C (second compound 1 µM, first compound 0.0949 µM): 12.5%
- viability, T/C (second compound 1 µM, first compound 0.3 µM): 9.99%
- viability, T/C (second compound 1 µM, first compound 0.949 µM): 8.63%
- viability, T/C (second compound 1 µM, first compound 3 µM): 4.84%
